Test results as given in article PMC10766984, “Josephin domain containing 2 (JOSD2) promotes lung cancer by inhibiting LKB1 (Liver kinase B1) activity” (Signal Transduction and Targeted Therapy, 2024).
Where a name gives a salt, the structure may show the parent alone.

These compounds were tested on PDX LUAD 083120 (Case 2) (assay: Patient-derived xenograft study, intratumor JOSD2 shRNA). Conditions: not given.
Assay type: in vivo, BALB/c-Nude mice
Protocol: (§1) PDXs were established in our lab using female BALB/c-Nude mice (4-5 weeks) implanted with tumor tissues from patients undergoing surgeries. […] Once tumors reached approximately 50 mm^3 in volume, mice were randomly assigned to scramble control or JOSD2 shRNA intra-tumor injection treatment. For the intratumor injection, a mice received an intratumorally injection of 5 ×10^6 lentiviruses in 20 μL sterile saline solution every two days.

With “shJOSD2#1: gene-specific shRNA targeting JOSD2, GCAACTATGATGTCAATGTGA, delivered by lentiviral vector (lentiviral shRNA)” the Inhibition ratio was 52.24%.

With “shJOSD2#1: gene-specific shRNA targeting JOSD2, GCAACTATGATGTCAATGTGA, delivered by lentiviral vector (lentiviral shRNA)” the T/C was 64.34%.

Same assay, conditions: at the endpoint

“shJOSD2#1: gene-specific shRNA targeting JOSD2, GCAACTATGATGTCAATGTGA, delivered by lentiviral vector (lentiviral shRNA)” was tested, and the “Tumor Weight” value was 0.08 ± 0.02 g.

Same assay, conditions: intratumor injection

Work on “shJOSD2#1: gene-specific shRNA targeting JOSD2, GCAACTATGATGTCAATGTGA, delivered by lentiviral vector (lentiviral shRNA)” yielded an RTV of 2.73 ± 0.63.

The compounds below were run on PDX LUAD 110519 (Case 1) in the same assay as above. Conditions: not given.
Assay type: in vivo, BALB/c-Nude mice
Protocol: as §1

“shJOSD2#1: gene-specific shRNA targeting JOSD2, GCAACTATGATGTCAATGTGA, delivered by lentiviral vector (lentiviral shRNA)” gave an Inhibition ratio of 64.73%.

“shJOSD2#1: gene-specific shRNA targeting JOSD2, GCAACTATGATGTCAATGTGA, delivered by lentiviral vector (lentiviral shRNA)” gave a T/C of 37.84%.

Same assay, conditions: at the endpoint

With “shJOSD2#1: gene-specific shRNA targeting JOSD2, GCAACTATGATGTCAATGTGA, delivered by lentiviral vector (lentiviral shRNA)” the “Tumor Weight” value was 0.14 ± 0.07 g.

Same assay, conditions: intratumor injection

With “shJOSD2#1: gene-specific shRNA targeting JOSD2, GCAACTATGATGTCAATGTGA, delivered by lentiviral vector (lentiviral shRNA)” the RTV was 3.20 ± 1.37.

These compounds were tested against T1, GST-JOSD2 (Homo sapiens, UniProt Q8TAC2) (assay: not given). Conditions: 2 μM compound incubated with GST-JOSD2 at 37 °C for 30 min.
T1 sequence (Q8TAC2 1-188): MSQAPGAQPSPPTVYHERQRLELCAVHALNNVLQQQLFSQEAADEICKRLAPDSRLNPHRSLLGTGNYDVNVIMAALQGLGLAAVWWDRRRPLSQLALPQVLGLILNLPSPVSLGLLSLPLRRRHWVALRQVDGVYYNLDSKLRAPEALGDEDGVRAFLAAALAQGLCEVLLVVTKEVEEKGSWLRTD

First: N#CSc1cc(SC#N)c(N)nc1N [PR-619, reference compound]
Second: O=C1C=CC(=O)c2c1nnn2Cc1cc(F)cc(Cl)c1 [HY032801]
The “JOSD2 activity inhibition ratio” value of the first is higher: 42.70% for the first, −0.98% for the second.

Same assay, conditions: compound concentration 2 μM; JOSD2 inhibitor screening, related to Fig. 7a

Compared with N#CSc1cc(SC#N)c(N)nc1N [PR-619, reference compound], O=C(c1ccc(F)cc1)C1CCN(CCn2c(=O)[nH]c3ccccc3c2=O)CC1 [Ketaneserin] is lower in “JOSD2 Activity Inhibition (%)” value: 42.70% for the first, -29.69% for the second.

First: HBX 19818
Second: CCCC(NC(=O)/C(C#N)=C/c1nc(Cl)ccc1Cl)c1ccc(OCCN2CCOCC2)cc1 (stereo not drawn) [EOAI3402143]
The “JOSD2 Activity Inhibition (%)” value of the first is lower: -0.37% for the first, 29.05% for the second.

First: CN1C2=CC(=O)/C(=N\NC(N)=O)C=C2CC1S(=O)(=O)[O-].[Na+] (stereo not drawn) [AC-17 (Carbazochrome sodium sulfonate)]
Second: O=C(CCc1ccccc1)N1CCC(O)(Cn2cnc3cc(Cl)ccc3c2=O)CC1 [USP7-IN-1]
The “JOSD2 Activity Inhibition (%)” value of the first is higher: 9.85% for the first, -29.77% for the second.

Going from CC1(C)[C@@H](O[C@H]2O[C@H](C(=O)O)[C@@H](O)[C@H](O)[C@H]2O[C@@H]2O[C@H](C(=O)O)[C@@H](O)[C@H](O)[C@H]2O)CC[C@]2(C)[C@H]3C(=O)C=C4[C@@H]5C[C@@](C)(C(=O)O)CC[C@]5(C)CC[C@@]4(C)[C@]3(C)CC[C@@H]12.N.N [Diammonium Glycyrrhizinate] to O=C1c2ccccc2C(=O)c2oc(-c3cccnc3)nc21 [SJB3-019A], the “JOSD2 Activity Inhibition (%)” value rises from -22.76% to 42.78%.

Going from O=C1/C(=C/c2ccc([N+](=O)[O-])cc2)CS(=O)(=O)C/C1=C\c1ccc([N+](=O)[O-])cc1 [Ubiquitin Isopeptidase Inhibitor I] to CCc1c(-c2ccc3[nH]ncc3c2)cnc(N)c1-c1ccc(O)cc1 [GNE-6640], the “JOSD2 Activity Inhibition (%)” value rises from 1.00% to 12.54%.

First: C[C@]12C=CC(=O)C=C1CC[C@@H]1[C@@H]2[C@@H](O)C[C@@]2(C)[C@H]1CC[C@]2(O)C(=O)COP(=O)([O-])[O-].[Na+].[Na+] [Prednisolone phosphate sodium]
Second: O=C1c2ccccc2C(=O)c2oc(-c3ccccc3)nc21 [SJB2-043]
The “JOSD2 Activity Inhibition (%)” value of the first is higher: 36.74% for the first, 13.43% for the second.

Compared with CC(=O)O/N=C1\C(=O)N(Cc2cc(Cl)ccc2Cl)c2ccc(Cl)cc21 [LDN-57444], Cl.N=C(N)NN [Aminoguanidine hydrochloride] is lower in “JOSD2 Activity Inhibition (%)” value: -16.75% for the first, -35.00% for the second.

Compared with CCO/N=C1\c2ccccc2-c2nc(C#N)c(C#N)nc21 [DUBs-IN-2], C=CC(N)CCC(=O)O.Cl (stereo not drawn) [Vigabatrin Hydrochloride] is lower in “JOSD2 Activity Inhibition (%)” value: 5.01% for the first, -16.37% for the second.

Going from Tyloxapol to C=CCO/N=C1\c2ccccc2-c2nc(C#N)c(C#N)nc21 [DUBs-IN-3], the “JOSD2 Activity Inhibition (%)” value falls from 29.65% to 14.15%.

With C[C@H]1C[C@@H]2[C@H]([C@@H](O)C[C@@]3(C)[C@H]2CC[C@]3(O)C(=O)COC(=O)CCC(=O)[O-])[C@@]2(C)C=CC(=O)C=C12.[Na+] [Methylprodnisolone Sodium Succinate] the “JOSD2 Activity Inhibition (%)” value was -78.62%.

Same assay, conditions: read-out: JOSD2 Activity Inhibition (%)

First: CCOC(=O)C1=C(COCCN)NC(C)=C(C(=O)OC)C1c1ccccc1Cl (stereo not drawn) [Amlodipine Besylate]
Second: COC(=O)[C@H](c1ccccc1Cl)N1CCc2sccc2C1 [Clopidogrel sulfate]
The inhibition at 2 µM of the first is lower: -24.3% for the first, -15% for the second.

Going from COc1cc(CNC(=O)CCCC/C=C/C(C)C)ccc1O [Capsaicin] to CC(=O)OCC(=O)NCCCOc1cccc(CN2CCCCC2)c1 [Roxatidine Acetate hydrochloride], the inhibition at 2 µM falls from 1.77% to -20.8%.

First: COc1ccc(O)cc1 [Leucobasal]
Second: O=S(=O)(O)c1cc(O)ccc1O [Etamsylate]
The inhibition at 2 µM of the first is higher: -15.3% for the first, -21.4% for the second.

Compared with C[C@]12CCC(=O)C=C1C=C[C@@H]1[C@@H]2CC[C@@]2(C)[C@H]1CC[C@@]21CCC(=O)O1 [Canrenone], CC(=O)[C@H]1CC[C@H]2[C@@H]3C[C@H](C)C4=CC(=O)CC[C@]4(C)[C@H]3[C@@H](O)C[C@]12C [Medrysone] is higher in inhibition at 2 µM: -22.3% for the first, -8.83% for the second.

Compared with COc1ccc(Cc2nccc3cc(OC)c(OC)cc23)cc1OC [Papaverine hydrochloride], CC(C(=O)O)c1ccc2c(c1)Cc1cccnc1O2 (stereo not drawn) [Pranoprofen] is higher in inhibition at 2 µM: -27.9% for the first, -2.73% for the second.

Compared with CCOC(=O)[N-]c1cn(N2CCOCC2)n[o+]1 [Molsidomine], CCN(CC)CCNC(=O)c1ccc(N)cc1 [Procainamide hydrochloride] is lower in inhibition at 2 µM: 35.8% for the first, -20.4% for the second.

Going from CN1C[C@H](C(=O)N[C@]2(C)O[C@@]3(O)[C@@H]4CCCN4C(=O)[C@H](Cc4ccccc4)N3C2=O)C=C2c3cccc4[nH]cc(c34)C[C@H]21 [Ergotamine bitartrate] to CC(CCc1ccccc1)NC(C)C(O)c1ccc(O)cc1 (stereo not drawn) [Nylidrin hydrochloride], the inhibition at 2 µM falls from -5.18% to -31.9%.

Compared with O=C1C=CC(=O)c2c1nnn2Cc1cc(F)cc(Cl)c1 [HY032801], CCc1ccc(CCOc2ccc(CC3SC(=O)NC3=O)cc2)nc1 (stereo not drawn) [Pioglitazone hydrochloride] is lower in inhibition at 2 µM: -0.98% for the first, -5% for the second.

Compared with CC(C)(C(=O)c1cccnc1)c1cccnc1 [Metyrapone], O=P(O)(O)C(O)(Cc1cccnc1)P(=O)(O)O [Risedronate Sodium] is higher in inhibition at 2 µM: -6.94% for the first, 4.34% for the second.

Going from CCCSc1nc(N[C@@H]2C[C@H]2c2ccc(F)c(F)c2)c2nnn([C@@H]3C[C@H](OCCO)[C@@H](O)[C@H]3O)c2n1 [Ticagrelor] to CCCCC(=O)O[C@]1(C(=O)CO)[C@@H](C)C[C@H]2[C@@H]3CCC4=CC(=O)C=C[C@]4(C)[C@@]3(F)[C@@H](O)C[C@@]21C [Betamethasone 17-valerate], the inhibition at 2 µM falls from 23.1% to -26%.

Going from CC(C)(Sc1ccc(CCN(CCCCC2CCCCC2)C(=O)NC2CCCCC2)cc1)C(=O)O [GW7647] to CC(=O)OCC(=O)[C@@]12OC3(CCCC3)O[C@@H]1C[C@H]1[C@@H]3CCC4=CC(=O)C=C[C@]4(C)[C@@]3(F)[C@@H](O)C[C@@]12C [Amcinonide], the inhibition at 2 µM rises from -29.7% to -19.2%.

Going from C#CCN(C)Cc1ccccc1 [Pargyline] to C#CCN[C@@H]1CCc2ccccc21 [Rasagiline], the inhibition at 2 µM falls from 29.8% to 29%.

The compounds below were run on LKB1-WT NSCLC cell lines (assay: Proliferation assay, panel of LKB1-WT cell lines). Conditions: indicated concentrations, 72 h.
Assay type: cell-based
Protocol: The indicated cell lines were treated with indicated compounds at a series of concentrations for 72 h, followed by cell proliferation assay and colony formation assay. Black dashed line indicates 50% of cell survival.
For cell proliferation assay, cells infected with lentiviruses packaged indicated plasmids were seeded indicated number cells per well in 96-well plates. Cell number (absorbance) was then estimated by the sulforhodamine B (SRB) (Sigma-Aldrich, #230162) assay and the absorbance of the individual wells was determined at the optical density of 515 nm. For colony formation assay, cells infected with lentiviruses packaged indicated plasmids were seeded indicated number cells per well in 6-well plates. Two weeks later, cells were stained with SRB and the numbers of colonies having more than 50 cells were counted.

O=C1C=CC(=O)c2c1nnn2Cc1cc(F)cc(Cl)c1 [HY032801] was tested, and the “Cell viability / cell proliferation” value was “failed to inhibit cell proliferation”.
